Reference: patent US20110027296A1, “ANTIBODIES FOR TREATING CANCER” (UNIVERSIDAD DE BARCELONA, priority 2008, published 2011)
Bridge positions count the residues as written; N and C are the ends. Square brackets hold non-standard residues; d marks the D form. Peptide text beside a SMILES is read from it. * marks the point of attachment. NH(β-GlcNAc) = CC(=O)N[C@@H]1[C@@H](O)[C@H](O)[C@@H](CO)O[C@H]1N*; Dap = NC[C@H](N)C(=O)O

Assays:
[1] = system: cyclin D1, cdk4, cdk2, p21 and p27; assay: Cell cycle protein expression by Western blot; assay type: cell-based; conditions: 100 nM SP or antibody 1/100 dilution; indicator of proliferative rate
Procedure: FIG. 1A: For the study of the effect of SP and its inhibition on cell cycle protein expression, cells were treated with 100 nM of SP or antibody anti-SP at 1/100 dilution for 48 hours. The different pattern of protein expression was determined by Western blot. C (control), SP, αSP (anti-SP antibody). FIG. 1B: For the time-course studies cells were treated at the same concentration of antibody for the times indicated. FIG. 1C: The ratio between p27/cyclin D1 (y-axis) was determined as an indicator of the proliferative rate of the cells.
For the analysis of substance P treatment on HER2 and EGFR activation, cells were seeded on dishes and growth until 80% confluence. […]
(§1) For protein extraction cells were lysated in ice-cold radioimmunoprecipitation assay buffer (Tris-HCl 50 mM, pH 7.4; NP-40 1%; Na-deoxycholate, 0.25%, NaCl 150 mM; EDTA 1 mM; PMSF 1 mM; proteinase inhibitors; Na3VO4 1 mM and NaF 1 mM) and sonicated for 10 seconds. After centrifugation (13000 g 5 min) supernatants were quantified for protein content. […] Chemiluminiscence of the bands was detected after ECL treatment (Amersham, Piscataway, N.J.) of membranes and subsequent analysis using a Fujifilm LAS3000 imaging system. Different intensities of bands were quantified using Image Gauge software, and correct Mr was compared with pre-stained protein standards (BioRad).

HER2 = HER2 phosphorylation and expression by Western blot in breast cancer cell lines; assay type: cell-based; conditions: SP 100 nM, FIG. 5
Procedure: In FIG. 5A, to analyze the effects of SP on HER2 activation different BC cell lines were treated with SP at 100 nM for the indicated times (in min). […] In FIG. 5B, for the dose-response study MDA-MB-453 cell line was treated at different times (minutes, x-axis) with 100, 200 or 500 nM of SP, and then activation of HER2 was determined. The results are expressed as a percentage of control (y-axis), and every experiment was done in duplicate.
In FIG. 6A cells were treated with 500 nM of SP or anti-SP antibody at 1/100 dilution for 48 hours, and the levels of the different proteins determined by Western blot. C means control. […] In FIG. 6B for the time-course studies, SKBR3 and BT474 cell lines were treated with anti-SP antibody for 24, 48 and 72 hours and protein analyzed by Western blot. […]
as §1, with “Different intensities of bands were quantified using Image Gauge software, and correct Mr was compared with pre-stained protein standards (BioRad).” left out

EGFR = EGFR phosphorylation by Western blot in MDA-MB-468 cells; assay type: cell-based; conditions: MDA-MB-468, 100 nM SP, time course
Procedure: FIG. 8A: to analyze the effects of SP on EGFR activation MDA-MB-468 cell line was treated with SP at 100 nM for the indicated times (in min). The levels of phospho-EGFR and phospho-Erk were determined by Western blot analysis. FIG. 8B: The effects of the inhibition of SP in the activation of EGFR were determined as for HER2. C means control.
For the analysis of substance P treatment on HER2 and EGFR activation, cells were seeded on dishes and growth until 80% confluence. After 24 hours of fetal deprivation, cells were treated at the indicated times with 100 nM SP. Cells were wash two times with cold PBS and rapidly frozen in a −80° C. freezer until protein extraction. […]
as §1

BCC = conditions: 1 nM antagonist; cited from earlier work
MDA-MB-231 = conditions: cytostatic and not cytotoxic effect; cited from earlier work

With “Arg-Pro-Lys-Pro-Gln-Gln-Phe-Phe-Gly-Leu-Met [substance P]” the “p27/cyclin D1 ratio” value [1] was “caused a decrease in p27/cyclin D1 ratio”, the “transactivation of HER2” value (HER2) was “induces transactivation of HER2” and the “activation of EGFR (phospho-EGFR)” value (EGFR) was “Activation of EGFR was observed at 2 min, with a second activation point at minute 6”.
In the case of `CC(=O)NC1(c2ccccc2)CCN(CC[C@H](CN(C)C(=O)c2ccccc2)c2ccc(Cl)c(Cl)c2)CC1` [SR 48968], the “reduction of BCC colony formation” value (BCC) is listed as 60%.
For `Cc1ccc(CC(=O)N(C)[C@H](Cc2ccc3ccccc3c2)C(=O)N[C@@H]2CCCC[C@@H]2NC(=O)c2c[nH]c3ccccc23)cc1` [MEN 11467], the “proliferation of tumor cell line MDA-MB-231” value (MDA-MB-231) is listed as “induced an inhibition of proliferation”.
For `CC(=O)N[C@@H]1[C@@H](O)[C@H](O)[C@@H](CO)O[C@H]1NC(=O)C[C@@H]1NC(=O)[C@H](CC(C)C)NC(=O)[C@@H]2CNC(=O)C[C@H](NC1=O)C(=O)N[C@@H](Cc1c[nH]c3ccccc13)C(=O)N[C@@H](Cc1ccccc1)C(=O)N2` [MEN 11420] (cyclo(D(NH(β-GlcNAc))DWF[Dap]L); lactam 2-5), the “proliferation of tumor cell line MDA-MB-231” value (MDA-MB-231) is listed as “induced an inhibition of proliferation”.
